Assay results from ChEMBL document CHEMBL5291721, “A preclinical secondary pharmacology resource illuminates target-adverse drug reaction associations of marketed drugs” (Nat Commun, 2023).

Legend:
Adenosine receptor A3 = biological target: T1, Adenosine receptor A3 (Homo sapiens, UniProt P0DMS8)
T1 sequence (P0DMS8 whole entry): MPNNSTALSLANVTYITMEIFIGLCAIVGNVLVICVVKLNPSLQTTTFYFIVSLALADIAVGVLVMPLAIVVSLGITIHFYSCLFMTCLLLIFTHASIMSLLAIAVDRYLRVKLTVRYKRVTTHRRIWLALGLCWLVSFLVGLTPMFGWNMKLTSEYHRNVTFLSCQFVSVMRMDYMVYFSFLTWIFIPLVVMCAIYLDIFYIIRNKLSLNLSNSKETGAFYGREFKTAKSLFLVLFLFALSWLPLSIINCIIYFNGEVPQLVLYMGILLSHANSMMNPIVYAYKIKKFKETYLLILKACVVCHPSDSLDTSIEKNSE

[1] = biological target: T2, Alpha-2A adrenergic receptor (Homo sapiens, UniProt P08913); type: functional, cell-based
T2 sequence (P08913 whole entry): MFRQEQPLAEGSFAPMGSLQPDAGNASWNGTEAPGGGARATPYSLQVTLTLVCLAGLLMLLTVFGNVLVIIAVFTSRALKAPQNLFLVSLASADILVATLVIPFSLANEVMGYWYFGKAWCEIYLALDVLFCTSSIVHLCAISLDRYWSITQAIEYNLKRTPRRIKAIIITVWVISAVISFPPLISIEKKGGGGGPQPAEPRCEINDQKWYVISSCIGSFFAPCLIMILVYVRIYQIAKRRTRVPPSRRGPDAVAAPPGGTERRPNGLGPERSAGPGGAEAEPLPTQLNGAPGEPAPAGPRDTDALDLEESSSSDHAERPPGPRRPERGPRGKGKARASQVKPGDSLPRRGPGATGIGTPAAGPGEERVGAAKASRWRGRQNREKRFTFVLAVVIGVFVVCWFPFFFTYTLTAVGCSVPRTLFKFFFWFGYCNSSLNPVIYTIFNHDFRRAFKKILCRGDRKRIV

[2] = biological target: T2, Alpha-2A adrenergic receptor; type: functional, cell-based; remark: listed apart in the source
[3] = biological target: T3, Cholecystokinin receptor type A (Homo sapiens, UniProt P32238)
T3 sequence (P32238 whole entry): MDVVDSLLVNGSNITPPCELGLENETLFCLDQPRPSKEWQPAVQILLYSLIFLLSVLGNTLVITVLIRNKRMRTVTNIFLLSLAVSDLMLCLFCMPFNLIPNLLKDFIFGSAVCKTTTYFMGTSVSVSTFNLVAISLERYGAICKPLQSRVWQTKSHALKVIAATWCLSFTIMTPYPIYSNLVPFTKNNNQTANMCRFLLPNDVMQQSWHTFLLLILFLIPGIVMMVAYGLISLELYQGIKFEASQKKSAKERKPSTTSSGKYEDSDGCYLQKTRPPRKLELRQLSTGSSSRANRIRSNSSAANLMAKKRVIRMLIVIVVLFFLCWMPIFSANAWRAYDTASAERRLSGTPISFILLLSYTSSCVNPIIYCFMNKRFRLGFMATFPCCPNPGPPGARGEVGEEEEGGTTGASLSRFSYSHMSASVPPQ

D(1A) dopamine receptor = D(1A) dopamine receptor (Homo sapiens, UniProt P21728); type: functional, cell-based
[4] = biological target: Growth hormone secretagogue receptor type 1 (Homo sapiens, UniProt Q92847)
[5] = biological target: 5-hydroxytryptamine receptor 2B (Homo sapiens, UniProt P41595); type: functional, cell-based
[6] = biological target: T4, 5-hydroxytryptamine receptor 2C (Homo sapiens, UniProt P28335)
T4 sequence (P28335 whole entry): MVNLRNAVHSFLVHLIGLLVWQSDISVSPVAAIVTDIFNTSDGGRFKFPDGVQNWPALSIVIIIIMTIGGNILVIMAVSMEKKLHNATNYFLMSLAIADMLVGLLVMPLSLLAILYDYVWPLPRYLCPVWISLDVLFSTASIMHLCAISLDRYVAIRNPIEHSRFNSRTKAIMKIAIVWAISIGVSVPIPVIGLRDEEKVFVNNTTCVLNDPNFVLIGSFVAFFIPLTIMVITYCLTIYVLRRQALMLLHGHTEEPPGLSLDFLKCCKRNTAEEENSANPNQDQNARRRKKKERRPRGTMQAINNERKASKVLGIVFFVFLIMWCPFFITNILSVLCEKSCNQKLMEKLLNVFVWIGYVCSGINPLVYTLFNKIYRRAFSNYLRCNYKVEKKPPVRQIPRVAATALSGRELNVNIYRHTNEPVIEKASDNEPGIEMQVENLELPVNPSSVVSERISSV

[7] = biological target: T5, 5-hydroxytryptamine receptor 3A (Homo sapiens, UniProt P46098); type: functional
T5 sequence (P46098 whole entry): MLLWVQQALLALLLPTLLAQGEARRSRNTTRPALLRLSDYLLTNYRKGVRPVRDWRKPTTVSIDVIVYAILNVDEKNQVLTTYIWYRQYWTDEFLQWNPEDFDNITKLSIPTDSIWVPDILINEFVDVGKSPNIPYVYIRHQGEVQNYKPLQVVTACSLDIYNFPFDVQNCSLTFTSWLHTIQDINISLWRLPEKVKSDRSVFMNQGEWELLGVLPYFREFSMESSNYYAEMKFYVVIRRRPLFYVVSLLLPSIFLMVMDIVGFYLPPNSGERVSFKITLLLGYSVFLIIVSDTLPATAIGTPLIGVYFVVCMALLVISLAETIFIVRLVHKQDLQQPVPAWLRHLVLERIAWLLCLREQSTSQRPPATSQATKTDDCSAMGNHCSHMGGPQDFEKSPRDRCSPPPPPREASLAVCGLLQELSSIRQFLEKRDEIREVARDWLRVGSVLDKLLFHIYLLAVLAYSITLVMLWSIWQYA

[8] = biological target: Voltage-gated inwardly rectifying potassium channel KCNH2 (Homo sapiens, UniProt Q12809); type: functional; conditions: read-out: AC50
Melanocortin receptor 3 = Melanocortin receptor 3 (Homo sapiens, UniProt P41968)
Motilin receptor = Motilin receptor (Homo sapiens, UniProt O43193)
[9] = biological target: Delta-type opioid receptor (Homo sapiens, UniProt P41143)
[10] = biological target: 3',5'-cyclic-AMP phosphodiesterase 4D (Homo sapiens, UniProt Q08499); type: functional
[11] = biological target: cGMP-inhibited 3',5'-cyclic phosphodiesterase 3A (Homo sapiens, UniProt Q14432); type: functional
Note: assay procedure not described here.

Chain of Growth hormone secretagogue receptor type 1 (Q92847 whole entry): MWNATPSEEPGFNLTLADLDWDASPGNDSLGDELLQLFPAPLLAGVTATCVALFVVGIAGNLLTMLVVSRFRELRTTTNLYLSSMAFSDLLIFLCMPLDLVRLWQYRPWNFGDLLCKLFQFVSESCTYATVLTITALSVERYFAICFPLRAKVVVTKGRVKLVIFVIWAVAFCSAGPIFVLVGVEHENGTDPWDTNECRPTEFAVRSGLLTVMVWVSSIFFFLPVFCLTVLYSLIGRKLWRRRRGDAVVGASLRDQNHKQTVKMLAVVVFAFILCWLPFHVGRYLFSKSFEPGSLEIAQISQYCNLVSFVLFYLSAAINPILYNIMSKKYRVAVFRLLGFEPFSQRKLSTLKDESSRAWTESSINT
Chain of Motilin receptor (O43193 whole entry): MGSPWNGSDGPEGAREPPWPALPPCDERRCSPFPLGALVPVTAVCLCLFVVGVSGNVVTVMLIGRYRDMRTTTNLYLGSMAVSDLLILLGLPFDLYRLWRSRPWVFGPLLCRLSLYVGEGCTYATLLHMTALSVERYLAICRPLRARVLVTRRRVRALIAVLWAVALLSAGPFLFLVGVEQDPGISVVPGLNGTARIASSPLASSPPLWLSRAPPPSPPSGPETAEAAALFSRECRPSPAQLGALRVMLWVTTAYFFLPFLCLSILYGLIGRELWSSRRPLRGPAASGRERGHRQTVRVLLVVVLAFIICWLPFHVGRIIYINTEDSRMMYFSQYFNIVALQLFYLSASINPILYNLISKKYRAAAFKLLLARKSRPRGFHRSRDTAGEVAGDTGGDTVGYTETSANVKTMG
Chain of cGMP-inhibited 3',5'-cyclic phosphodiesterase 3A (Q14432 whole entry): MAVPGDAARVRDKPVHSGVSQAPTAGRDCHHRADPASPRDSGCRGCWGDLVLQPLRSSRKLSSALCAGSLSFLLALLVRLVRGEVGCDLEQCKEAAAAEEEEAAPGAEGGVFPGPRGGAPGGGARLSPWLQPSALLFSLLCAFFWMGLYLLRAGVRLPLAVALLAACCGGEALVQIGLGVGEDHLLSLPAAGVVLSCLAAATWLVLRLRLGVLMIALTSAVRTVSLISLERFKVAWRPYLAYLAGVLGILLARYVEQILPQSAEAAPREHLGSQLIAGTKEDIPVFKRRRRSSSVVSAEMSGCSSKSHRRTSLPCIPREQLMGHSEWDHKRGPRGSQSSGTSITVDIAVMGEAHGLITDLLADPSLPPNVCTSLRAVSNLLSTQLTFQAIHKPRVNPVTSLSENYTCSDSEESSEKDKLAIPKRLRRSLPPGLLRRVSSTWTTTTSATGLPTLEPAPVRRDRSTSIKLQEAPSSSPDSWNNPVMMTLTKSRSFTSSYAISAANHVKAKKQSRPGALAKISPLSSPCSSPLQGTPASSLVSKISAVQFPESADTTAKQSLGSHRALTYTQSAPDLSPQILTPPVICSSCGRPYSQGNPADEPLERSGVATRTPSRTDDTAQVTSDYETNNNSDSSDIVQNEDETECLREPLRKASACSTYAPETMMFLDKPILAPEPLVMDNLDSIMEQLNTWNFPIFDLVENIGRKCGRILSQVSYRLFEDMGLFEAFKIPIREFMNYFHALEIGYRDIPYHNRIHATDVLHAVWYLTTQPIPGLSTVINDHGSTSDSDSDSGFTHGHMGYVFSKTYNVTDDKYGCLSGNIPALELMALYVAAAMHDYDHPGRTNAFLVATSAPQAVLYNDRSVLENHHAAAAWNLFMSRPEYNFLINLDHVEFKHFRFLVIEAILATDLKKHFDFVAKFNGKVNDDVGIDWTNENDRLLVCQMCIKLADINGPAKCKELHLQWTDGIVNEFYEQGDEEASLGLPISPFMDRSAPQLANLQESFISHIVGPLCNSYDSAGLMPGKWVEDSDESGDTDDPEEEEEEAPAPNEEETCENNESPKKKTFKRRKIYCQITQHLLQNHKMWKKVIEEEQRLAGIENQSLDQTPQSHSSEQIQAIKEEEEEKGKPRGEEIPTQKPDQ
Chain of Voltage-gated inwardly rectifying potassium channel KCNH2 (Q12809 whole entry): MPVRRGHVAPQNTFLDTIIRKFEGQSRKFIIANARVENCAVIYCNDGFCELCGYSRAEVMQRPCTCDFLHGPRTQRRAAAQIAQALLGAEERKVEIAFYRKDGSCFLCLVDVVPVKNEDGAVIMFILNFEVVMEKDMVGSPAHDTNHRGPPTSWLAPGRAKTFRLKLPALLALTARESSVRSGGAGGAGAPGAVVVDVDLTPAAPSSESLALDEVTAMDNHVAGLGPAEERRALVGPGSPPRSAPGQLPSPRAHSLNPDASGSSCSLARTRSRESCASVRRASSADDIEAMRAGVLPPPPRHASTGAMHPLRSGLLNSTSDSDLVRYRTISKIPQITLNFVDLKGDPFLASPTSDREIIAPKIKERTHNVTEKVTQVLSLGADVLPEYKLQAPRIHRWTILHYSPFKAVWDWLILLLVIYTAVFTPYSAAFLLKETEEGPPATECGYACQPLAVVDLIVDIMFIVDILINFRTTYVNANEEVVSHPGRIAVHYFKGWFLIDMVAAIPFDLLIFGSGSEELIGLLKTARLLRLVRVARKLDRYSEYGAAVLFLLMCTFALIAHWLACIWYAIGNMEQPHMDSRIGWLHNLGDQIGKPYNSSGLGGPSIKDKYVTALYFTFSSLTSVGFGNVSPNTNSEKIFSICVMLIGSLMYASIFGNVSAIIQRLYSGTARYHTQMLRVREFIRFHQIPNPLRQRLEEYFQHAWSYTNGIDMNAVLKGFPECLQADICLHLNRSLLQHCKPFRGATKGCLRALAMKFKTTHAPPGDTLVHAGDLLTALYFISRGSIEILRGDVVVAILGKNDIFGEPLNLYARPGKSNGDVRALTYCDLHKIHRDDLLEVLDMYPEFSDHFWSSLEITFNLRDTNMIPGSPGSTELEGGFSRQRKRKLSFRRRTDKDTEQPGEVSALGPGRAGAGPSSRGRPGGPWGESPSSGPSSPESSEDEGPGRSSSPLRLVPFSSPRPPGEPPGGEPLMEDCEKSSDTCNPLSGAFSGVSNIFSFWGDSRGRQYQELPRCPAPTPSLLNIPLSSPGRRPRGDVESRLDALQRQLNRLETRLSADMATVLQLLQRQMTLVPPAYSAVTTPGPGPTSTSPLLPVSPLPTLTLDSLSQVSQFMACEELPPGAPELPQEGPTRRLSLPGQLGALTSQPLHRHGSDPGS
Chain of Melanocortin receptor 3 (P41968 whole entry): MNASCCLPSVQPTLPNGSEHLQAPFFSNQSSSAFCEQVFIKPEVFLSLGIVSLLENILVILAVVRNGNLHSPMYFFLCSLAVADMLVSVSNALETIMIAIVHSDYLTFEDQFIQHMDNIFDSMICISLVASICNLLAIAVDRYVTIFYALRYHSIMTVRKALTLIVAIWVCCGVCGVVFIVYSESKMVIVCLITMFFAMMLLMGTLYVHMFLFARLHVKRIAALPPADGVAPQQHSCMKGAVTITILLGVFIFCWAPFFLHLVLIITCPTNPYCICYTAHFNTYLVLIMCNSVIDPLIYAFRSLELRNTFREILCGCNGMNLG
Chain of 5-hydroxytryptamine receptor 2B (P41595 whole entry): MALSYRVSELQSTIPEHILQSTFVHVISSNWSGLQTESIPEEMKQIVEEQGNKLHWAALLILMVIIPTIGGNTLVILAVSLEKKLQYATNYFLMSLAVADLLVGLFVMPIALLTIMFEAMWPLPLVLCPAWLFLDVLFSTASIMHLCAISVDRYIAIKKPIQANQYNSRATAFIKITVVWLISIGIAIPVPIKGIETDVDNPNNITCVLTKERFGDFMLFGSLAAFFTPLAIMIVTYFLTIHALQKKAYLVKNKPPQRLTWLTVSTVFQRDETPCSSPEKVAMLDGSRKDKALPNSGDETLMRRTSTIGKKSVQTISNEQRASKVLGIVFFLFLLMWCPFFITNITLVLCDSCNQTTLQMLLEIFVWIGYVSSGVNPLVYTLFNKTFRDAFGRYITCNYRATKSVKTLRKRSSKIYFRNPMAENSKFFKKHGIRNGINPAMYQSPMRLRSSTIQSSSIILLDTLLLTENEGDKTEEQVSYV
Chain of Delta-type opioid receptor (P41143 whole entry): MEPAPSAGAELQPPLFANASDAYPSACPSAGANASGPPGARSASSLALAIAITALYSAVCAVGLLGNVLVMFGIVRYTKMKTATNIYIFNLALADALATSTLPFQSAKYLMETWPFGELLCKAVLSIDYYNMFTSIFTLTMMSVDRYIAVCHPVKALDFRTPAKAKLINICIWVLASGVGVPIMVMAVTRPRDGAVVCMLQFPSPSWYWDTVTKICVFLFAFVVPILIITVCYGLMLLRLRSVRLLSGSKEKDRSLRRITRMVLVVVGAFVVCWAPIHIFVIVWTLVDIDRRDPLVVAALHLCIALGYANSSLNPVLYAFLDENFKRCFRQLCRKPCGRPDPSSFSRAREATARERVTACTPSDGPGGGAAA
Chain of D(1A) dopamine receptor (P21728 whole entry): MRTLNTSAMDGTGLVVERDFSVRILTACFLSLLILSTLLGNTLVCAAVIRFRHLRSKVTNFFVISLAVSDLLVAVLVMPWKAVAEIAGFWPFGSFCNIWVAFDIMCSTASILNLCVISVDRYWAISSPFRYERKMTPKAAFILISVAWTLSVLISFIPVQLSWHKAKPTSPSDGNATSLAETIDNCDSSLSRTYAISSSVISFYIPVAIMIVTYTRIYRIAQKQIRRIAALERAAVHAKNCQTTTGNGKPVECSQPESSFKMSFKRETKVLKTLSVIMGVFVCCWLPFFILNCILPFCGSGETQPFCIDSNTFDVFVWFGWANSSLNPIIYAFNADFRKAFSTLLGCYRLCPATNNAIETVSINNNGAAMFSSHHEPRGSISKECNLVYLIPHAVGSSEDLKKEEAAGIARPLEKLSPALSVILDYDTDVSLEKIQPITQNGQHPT

## CN(C)CCN(Cc1ccccc1)c1ccccn1 [TRIPELENNAMINE]
Adenosine receptor A3
  AC50: > 10 µM
[1]
  AC50: > 10 µM
[2]
  AC50: > 10 µM
[3]
  AC50: > 10 µM
D(1A) dopamine receptor
  AC50: > 10 µM
[4]
  AC50: > 10 µM
[5]
  AC50: > 10 µM
[6]
  AC50: > 10 µM
[7]
  AC50: > 30 µM
[8]
  AC50: 2.8 µM
Melanocortin receptor 3
  AC50: > 10 µM
Motilin receptor
  AC50: > 10 µM
[9]
  AC50: > 30 µM
[10]
  AC50: > 10 µM
[11]
  AC50: > 10 µM

## Cc1c(C)c2c(c(C)c1O)CCC(C)(COc1ccc(CC3SC(=O)NC3=O)cc1)O2 (stereo not given) [TROGLITAZONE]
Adenosine receptor A3
  AC50: 8.48 µM
[1]
  AC50: > 30 µM
[2]
  AC50: > 30 µM
[3]
  AC50: > 30 µM
D(1A) dopamine receptor
  AC50: > 30 µM
[4]
  AC50: > 30 µM
[5]
  AC50: > 30 µM
[6]
  AC50: > 30 µM
[7]
  AC50: > 30 µM
[8]
  AC50: > 30 µM
Melanocortin receptor 3
  AC50: > 30 µM
Motilin receptor
  AC50: > 30 µM
[9]
  AC50: > 30 µM
[10]
  AC50: 2.88 µM
[11]
  AC50: 6.19 µM

## c1cnc2cc3c(cc2n1)[C@@H]1CNC[C@H]3C1 [VARENICLINE]
Adenosine receptor A3
  AC50: > 30 µM
[1]
  AC50: > 30 µM
[2]
  AC50: > 30 µM
[3]
  AC50: > 30 µM
D(1A) dopamine receptor
  AC50: > 30 µM
[4]
  AC50: > 30 µM
[5]
  AC50: > 30 µM
[6]
  AC50: > 30 µM
[7]
  AC50: 13 µM
[8]
  AC50: > 30 µM
Melanocortin receptor 3
  AC50: > 30 µM
Motilin receptor
  AC50: > 30 µM
[9]
  AC50: > 30 µM
[10]
  AC50: > 30 µM
[11]
  AC50: > 30 µM

## Nc1c2c(nc3ccccc13)CCCC2O (stereo not given) [VELNACRINE]
Adenosine receptor A3
  AC50: > 30 µM
[1]
  AC50: > 30 µM
[2]
  AC50: > 30 µM
[3]
  AC50: > 30 µM
D(1A) dopamine receptor
  AC50: > 30 µM
[4]
  AC50: > 30 µM
[5]
  AC50: > 30 µM
[6]
  AC50: > 30 µM
[7]
  AC50: > 30 µM
[8]
  AC50: 25 µM
Melanocortin receptor 3
  AC50: > 30 µM
Motilin receptor
  AC50: > 30 µM
[9]
  AC50: > 30 µM
[10]
  AC50: > 30 µM
[11]
  AC50: > 30 µM
